The record followed here is patent US20220089592A1, “IMIDAZO[1,2-A]PYRIDINYL DERIVATIVES AS IRAK4 INHIBITORS” (priority 2019, published 2022).

Molecules are shown by their SMILES.

In the experiment the target is T1, IRAK4 (Homo sapiens, UniProt Q9NWZ3).
T1 sequence (Q9NWZ3 1-460): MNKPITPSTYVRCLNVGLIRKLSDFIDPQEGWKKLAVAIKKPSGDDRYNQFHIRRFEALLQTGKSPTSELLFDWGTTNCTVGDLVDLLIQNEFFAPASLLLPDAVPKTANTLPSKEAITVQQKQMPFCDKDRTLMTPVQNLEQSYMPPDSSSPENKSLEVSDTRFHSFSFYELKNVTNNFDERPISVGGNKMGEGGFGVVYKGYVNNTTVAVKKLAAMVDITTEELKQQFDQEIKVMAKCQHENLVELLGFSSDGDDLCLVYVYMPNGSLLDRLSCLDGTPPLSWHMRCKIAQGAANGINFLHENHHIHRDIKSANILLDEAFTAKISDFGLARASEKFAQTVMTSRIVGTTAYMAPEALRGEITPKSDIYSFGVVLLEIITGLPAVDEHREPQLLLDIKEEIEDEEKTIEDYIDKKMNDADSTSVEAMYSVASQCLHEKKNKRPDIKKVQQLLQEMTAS
The experiment in a line: 2-hour 1 mM ATP IRAK4 Biochemical assay (as above, but with 100 pM IRAK4 and 1 mM ATP). As to conditions: IRAK4 MSD BIOCHEMICAL (1 mM ATP) IC50 (μM), 100 pM IRAK4, 2 hours. The method in brief: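 MSD electrochemiluminescence read-out: biotinylated peptide product bound to streptavidin plates, probed with anti-P-Thr rabbit antibody and Sulfo-Tag goat anti-rabbit. Kinase reaction used 1 mM ATP and 100 pM IRAK4 over 2 hours before EDTA quench.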
Usually IC50 stands for the concentration needed to halve the response being measured. High values mean a need for much substance, low ones inhibition by little substance. In turn, `O=C(Nc1cn2cc(C3CCOCC3)nc2c(N2CCCC2)n1)c1cccc(C(F)F)n1` [Example 342, 6-(difluoromethyl)-N-(8-(pyrrolidin-1-yl)-2-(tetrahydro-2H-pyran-4-yl)imidazo[1,2-a]pyrazin-6-yl)picolinamide] registered an IC50 of 0.055 µM.
The same measure for `COc1c(F)cccc1C(=O)Nc1cn2cc(C34COC(C)(C3)C4)nc2nc1OC(C)C` [Example 489, 3-fluoro-N-(7-isopropoxy-2-(1-methyl-2-oxabicyclo[2.1.1]hexan-4-yl)imidazo[1,2-a]pyrimidin-6-yl)-2-methoxybenzamide 2,2,2-trifluoroacetate]: 0.003 µM; for `CC(C)Oc1c(NC(=O)c2cccc(OCC(F)F)n2)cn2cc(C34COC(C)(C3)C4)nc2c1F` [Example 429, 6-(2,2-difluoroethoxy)-N-(8-fluoro-7-isopropoxy-2-(1-methyl-2-oxabicyclo[2.1.1]hexan-4-yl)imidazo[1,2-a]pyridin-6-yl)picolinamide 2,2,2-trifluoroacetate]: 0.006 µM; for `CC(C)Oc1nc2nc(C34COC(C)(C3)C4)cn2cc1NC(=O)c1cccc2ncnn12` [Example 348, N-(7-isopropoxy-2-(1-methyl-2-oxabicyclo[2.1.1]hexan-4-yl)imidazo[1,2-a]pyrimidin-6-yl)-[1,2,4]triazolo[1,5-a]pyridine-5-carboxamide]: 0.001 µM.
The same measure for `CCOc1cc2nc(C3CN(CC(F)(F)F)C3)cn2cc1NC(=O)c1cccc(C(F)F)n1` [Example 77, 6-(difluoromethyl)-N-(7-ethoxy-2-(1-(2,2,2-trifluoroethyl)azetidin-3-yl)imidazo[1,2-a]pyridin-6-yl)picolinamide]: 0.001 µM; for `COc1nc(NC(=O)c2cccc(C(F)F)n2)cn2cc(C34CCC(CC3)OC4)nc12` [Example 561, N-(2-(2-oxabicyclo[2.2.2]octan-4-yl)-8-methoxyimidazo[1,2-a]pyrazin-6-yl)-6-(difluoromethyl)picolinamide]: 0.051 µM.
The figure for `CC(C)(O)c1cc2nc(C3CCOCC3)cn2cc1NC(=O)c1cccc(C(F)F)n1` [Example 292, 6-(difluoromethyl)-N-(7-(2-hydroxypropan-2-yl)-2-(tetrahydro-2H-pyran-4-yl)imidazo[1,2-a]pyridin-6-yl)picolinamide] is 0.001 µM; for `O=C(Nc1cn2cc(C3CCOCC3)nc2cc1OCC1(C(F)F)CCC1)c1cccc(C(F)F)n1` [Example 198, 6-(difluoromethyl)-N-(7-((1-(difluoromethyl)cyclobutyl)methoxy)-2-(tetrahydro-2H-pyran-4-yl)imidazo[1,2-a]pyridin-6-yl)picolinamide] it is 0.001 µM; for `COc1ccccc1C(=O)Nc1cn2cc(C34COC(CF)(C3)C4)nc2c(OC(C)C)n1` [Example 483, N-(2-(1-(fluoromethyl)-2-oxabicyclo[2.1.1]hexan-4-yl)-8-isopropoxyimidazo[1,2-a]pyrazin-6-yl)-2-methoxybenzamide 2,2,2-trifluoroacetate] it is 0.022 µM.
The compound `CCOc1cc(NC(=O)c2cccc(C)n2)cn2cc([C@H]3[C@@H]4COC[C@@H]43)nc12` [Example 417, N-(2-((1R,5S,6s)-3-oxabicyclo[3.1.0]hexan-6-yl)-8-ethoxyimidazo[1,2-a]pyridin-6-yl)-6-methylpicolinamide] gave an IC50 of 0.022 µM.
The same measure for `COc1cc2nc(C34COC(C)(C3)C4)cn2cc1NC(=O)c1cccc(C(F)(F)F)n1` [Example 309, N-(7-methoxy-2-(1-methyl-2-oxabicyclo[2.1.1]hexan-4-yl)imidazo[1,2-a]pyridin-6-yl)-6-(trifluoromethyl)picolinamide]: 0.001 µM.
As to `Cc1cccc(C(=O)Nc2cn3cc(C45COC(C)(C4)C5)nc3c(OC(C)C)n2)c1F` [Example 478, 2-fluoro-N-(8-isopropoxy-2-(1-methyl-2-oxabicyclo[2.1.1]hexan-4-yl)imidazo[1,2-a]pyrazin-6-yl)-3-methylbenzamide 2,2,2-trifluoroacetate], the IC50 is 0.012 µM.
The same measure for `CC(C)Oc1cc2nc(Cl)cn2cc1NC(=O)c1cccc(C(F)F)n1` [Example 294, N-(2-chloro-7-isopropoxyimidazo[1,2-a]pyridin-6-yl)-6-(difluoromethyl)picolinamide]: 0.002 µM; for `O=C(Nc1cn2cc(C3CCOCC3)nc2cc1OCCC1CCOC1)c1cccc(C(F)F)n1` (stereo not shown) [Example 195, 6-(difluoromethyl)-N-(2-(tetrahydro-2H-pyran-4-yl)-7-(2-(tetrahydrofuran-3-yl)ethoxy)imidazo[1,2-a]pyridin-6-yl)picolinamide]: 0.002 µM; for `CC(C)Oc1cc2nc(C3CCOC3)cn2cc1NC(=O)c1cccc(C(F)F)n1` (stereo not shown) [Example 530, 6-(difluoromethyl)-N-(7-isopropoxy-2-(tetrahydrofuran-3-yl)imidazo[1,2-a]pyridin-6-yl)picolinamide 2,2,2-trifluoroacetate]: 0.045 µM.
With `COc1nc(NC(=O)c2coc(C3CC3)n2)cn2cc(C34CCC(C)(C3)OC4)nc12` (stereo not shown) [Example 472, 2-cyclopropyl-N-(8-methoxy-2-(1-methyl-2-oxabicyclo[2.2.1]heptan-4-yl)imidazo[1,2-a]pyrazin-6-yl)oxazole-4-carboxamide 2,2,2-trifluoroacetate], the IC50 came to 0.015 µM.
`CCOc1cc(NC(=O)c2cccc(C(F)(F)F)n2)cn2cc(C3CCCOC3)nc12` (single isomer, unassigned) [Example 288, N-(8-ethoxy-2-(tetrahydro-2H-pyran-3-yl)imidazo[1,2-a]pyridin-6-yl)-6-(trifluoromethyl)picolinamide]: the IC50 turned out to be 0.008 µM.
The figure for `COc1nc(NC(=O)c2cccc(C(F)F)n2)cn2cc(C34COC(CF)(C3)C4)nc12` [Example 559, 6-(difluoromethyl)-N-(2-(1-(fluoromethyl)-2-oxabicyclo[2.1.1]hexan-4-yl)-8-methoxyimidazo[1,2-a]pyrazin-6-yl)picolinamide] is 0.012 µM; for `COc1cc(NC(=O)c2cccc(C(F)F)n2)cn2cc(C34CC(F)(C3)C4)nc12` [Example 535, 6-(difluoromethyl)-N-(2-(3-fluorobicyclo[1.1.1]pentan-1-yl)-8-methoxyimidazo[1,2-a]pyridin-6-yl)picolinamide] it is 0.05 µM.
`O=C(Nc1cn2cc(C3CCOCC3)nc2cc1OCC1CC(F)(F)C1)c1cccc(C(F)F)n1` [Example 191, N-(7-((3,3-difluorocyclobutyl)methoxy)-2-(tetrahydro-2H-pyran-4-yl)imidazo[1,2-a]pyridin-6-yl)-6-(difluoromethyl)picolinamide]: the IC50 was 0.002 µM.
The figure for `COc1cc(NC(=O)c2cccc(C(F)F)n2)cn2c(F)c(C3CCOCC3)nc12` [Example 351, 6-(difluoromethyl)-N-(3-fluoro-8-methoxy-2-(tetrahydro-2H-pyran-4-yl)imidazo[1,2-a]pyridin-6-yl)picolinamide] is 0.1 µM; for `COc1ncccc1C(=O)Nc1cn2cc(C34COC(C)(C3)C4)nc2cc1OC(F)F` [Example 396, N-(7-(difluoromethoxy)-2-(1-methyl-2-oxabicyclo[2.1.1]hexan-4-yl)imidazo[1,2-a]pyridin-6-yl)-2-methoxynicotinamide 2,2,2-trifluoroacetate] it is 0.002 µM; for `CC(C)Oc1cc2nc(C(F)F)cn2cc1NC(=O)c1ccn(C(F)F)n1` [Example 267, 1-(difluoromethyl)-N-(2-(difluoromethyl)-7-isopropoxyimidazo[1,2-a]pyridin-6-yl)-1H-pyrazole-3-carboxamide] it is 0.002 µM.
The figure for `CC1(C)CCC1Oc1cc2nc(C3CCOCC3)cn2cc1NC(=O)c1cccc(C(F)F)n1` (stereo not shown) [Example 177, 6-(difluoromethyl)-N-(7-(2,2-dimethylcyclobutoxy)-2-(tetrahydro-2H-pyran-4-yl)imidazo[1,2-a]pyridin-6-yl)picolinamide] is 0.001 µM; for `COc1nc(NC(=O)c2cccc(C(F)F)n2)cn2cc(C34CCOC(C)(C3)C4)nc12` [Example 555, 6-(difluoromethyl)-N-(8-methoxy-2-(1-methyl-2-oxabicyclo[3.1.1]heptan-5-yl)imidazo[1,2-a]pyrazin-6-yl)picolinamide] it is 0.007 µM; for `CC(C)Oc1nc(NC(=O)c2cccc3ncnn23)cn2cc(C34COC(C)(C3)C4)nc12` [Example 480, N-(8-isopropoxy-2-(1-methyl-2-oxabicyclo[2.1.1]hexan-4-yl)imidazo[1,2-a]pyrazin-6-yl)-[1,2,4]triazolo[1,5-a]pyridine-5-carboxamide] it is 0.005 µM.
With `CC12CC(c3cn4cc(NC(=O)c5cccc(C(F)F)n5)cc(OC(F)F)c4n3)(CO1)C2` [Example 419, N-(8-(difluoromethoxy)-2-(1-methyl-2-oxabicyclo[2.1.1]hexan-4-yl)imidazo[1,2-a]pyridin-6-yl)-6-(difluoromethyl)picolinamide], half-maximal inhibition (IC50) was put at 0.011 µM.
The same measure for `CCOc1cc2nc(C3CCOCC3)cn2cc1NC(=O)c1cccc(CC)n1` [Example 217, N-(7-ethoxy-2-(tetrahydro-2H-pyran-4-yl)imidazo[1,2-a]pyridin-6-yl)-6-ethylpicolinamide]: 0.001 µM.
